Laboratory results taken from patent US7060707B2, “Isoquinoline derivatives” (Merck Patent GmbH, priority 2002, dated 2006).

With Cc1ccnc(NCCCCC(=O)NNC(=O)N2CCc3ccccc3C2CC(=O)O)c1 (stereo not shown) [Example 4] the melting point was 103 to 109 °C.
